One series addresses T1, human IAPP (Homo sapiens, UniProt P10997).
T1 construct: Mature, fully processed, Amylin is 37 residues in length, contains a disulfide bond between residues 2 and 7; made in house; host or cells: chemical solid-phase peptide synthesis (Fmoc), no expression host
T1 sequence (P10997 34-70 limits assumed): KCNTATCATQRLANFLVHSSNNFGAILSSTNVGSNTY
The experiment in a line: Fluorescence detected thioflavin-T assay of the time course of amyloid formation. It is filed as biochemical. Conditions: for effect on islet amyloid formation (thioflavin-T time course): compound 20 parts, human IAPP 1 part, example in present tense; for inhibition of amyloid formation by human IAPP (amylin): 20 to 1 ratio of NSAID to human IAPP, pH 7.4, 25° C. On the procedure:
Peptides were first dissolved in 100% hexafluoroisopropanol (HFIP) at a concentration 1.6 mM and then filtered to remove any preformed amyloid aggregates. For thioflavin-T fluorescence assays, aliquots were lyophilized and redissolved in pH 7.4, 20 mM Tris-HCl buffer at the desired concentration. Aspirin and Ketoprofen were prepared in 100% dimethyl sulfoxide (DMSO).
Solutions were prepared by adding pH 7.4, 20 mM Tris buffer and thioflavin-T to lyophilized dry peptides for a final peptide concentration of […]. For the studies of Aspirin and Ketoprofen, 0.25% DMSO was present in the solution. Measurements were made at 25° C. using a Beckman Coulter DTX880 plate reader without stirring. An excitation filter of 430 nm and an emission filter of 485 nm were used. To test disaggregate activity of Aspirin, peptide was first incubated in low-binding 96-wells plate and monitored by plate reader to ensure the formation of amyloid fibrils.
A mixture of flurbiprofen (1-20 parts) and human IAPP (1 part) was monitored by fluorescence detected thioflavin-T assays. The assays monitored the time course of amyloid formation (amount vs time) in the presence and absence of flurbiprofen.
A mixture of OH-flurbiprofen and human IAPP were monitored by fluorescence detected thioflavin-T assays. Three different concentrations (1:1 ratio, 1:10 ratio and 1:20 ratio of IAPP to OH-flurbiprofen) were tested against human IAPP without any added OH-flurbiprofen. The assays monitored the time course of amyloid formation (amount vs time) in the presence and absence of a flurbiprofen derivative.
Three different mixtures of NSAIDs (20 parts) and human IAPP (1 parts) were compared to each other and human IAPP alone by fluorescence detected thioflavin-T assays. The assays monitored the time course of amyloid formation (amount vs time) in the presence and absence of aspirin, naproxen and flurbiprofen.

The test system of another series is rat INS-1 beta-cells. As to the kind of experiment: AlamarBlue cell viability of beta-cells given aliquots of the IAPP amyloid time course. It is filed as cell-based. On the procedure: FIG. 5. […] (A) A thioflavin-T monitored time course of amyloid formation in the presence and absence of flurbiprofen. […] 20 mM Tris-HCl buffer with 0.25% DMSO was used as the control.
The presence of toxic intermediates is reduced when amyloid formation is accelerated by use of flurbiprofen or a flurbiprofen derivative. A thioflavin-T monitored time course of amyloid formation by human IAPP was conducted in the presence and absence of flurbiprofen. Aliquots were removed at various time points and applied to rat INS-1 beta-cells; at thirty minutes, at 12 hours, at 48 hours. Cell viability as judged by AlamarBlue assays. 20 mM Tris-HCl buffer with 0.25% DMSO was used as the control.

The subject of series [1] is 3XL-IAPP mutant (F15L, F23L, Y37L human IAPP). As to the kind of experiment: Thioflavin-T assay of mutant human IAPP amyloid formation (3XL). It is filed as biochemical. Conditions: WT human IAPP and mutant IAPP compared. The text has this:
A mixture of flurbiprofen (20 parts) and human IAPP (1 part) was monitored by fluorescence detected thioflavin-T assays. The assays monitored the time course of amyloid formation (amount vs time) in the presence and absence of flurbiprofen. The effect of flurbiprofen in wild-type (WT) human IAPP, and in two mutants of human IAPP was monitored. In one mutant, all of the aromatic amino acids in human IAPP were replaced by […] human IAPP was examined. A second mutant in which […] human IAPP) was also tested.

Another series addresses T2, human IAPP (amylin) (Homo sapiens, UniProt P10997).
T2 construct: Mature, fully processed, Amylin is 37 residues in length, contains a disulfide bond between residues 2 and 7; made in house; host or cells: chemical solid-phase peptide synthesis (Fmoc), no expression host
T2 sequence (P10997 34-70 limits assumed): T1 sequence (P10997 34-70 limits assumed)
The experiment in a line: Transmission electron microscopy of amyloid fibrils. It is filed as biochemical. On the procedure: TEM was performed at the Life Science Microscopy Center at Stony Brook University. Aliquots were removed from the same solutions that were used for the fluorescence measurements. 5 μL of peptide solution was placed on carbon-coated Formvar 300 mesh copper grid for one minute and then negatively stained with saturated uranyl acetate for another one minute.

Series [2] can be described thus: Parallel biophysical and cell viability experiments on h-IAPP variants. It is filed as cell-based. On the procedure:
Parallel biophysical and cell viability experiments were conducted using a range of conditions that alter the length of the lag phase. h-IAPP amyloid kinetics are concentration-dependent. Decreasing the peptide concentration leads to an increase in the length of the lag phase, while an increase in human-IAPP concentration leads to a shortening of the lag phase. The length of the lag phase can also be controlled by altering the temperature. Lower temperatures lead to a longer lag phase; the lag phase is 2-fold longer at 15° C. […] A set of rationally designed Ser-20 mutations were used. Ser-20 is located at a critical position in the h-IAPP sequence and modulates its aggregation kinetics. […] Toxicity and kinetics experiments were performed on the Ser-20 mutants. […] An human-IAPP triple mutant, 3×L-IAPP, in which Leu replaced the three aromatic residues (Phe-15, Phe=23 and Tyr-37) was tested. This mutant forms amyloid 9-fold more slowly than wild type human IAPP (Marek at al. 2007). […] The duration of toxicity for all the mutants and for all the conditions with human IAPP wild type correlated with the length of the respective lag phases.

For series [3], the target named is T3, pre-formed human amylin amyloid fibrils (Homo sapiens, UniProt P10997).
T3 construct: Mature, fully processed, Amylin is 37 residues in length, contains a disulfide bond between residues 2 and 7; made in house; host or cells: chemical solid-phase peptide synthesis (Fmoc), no expression host
T3 sequence (P10997 34-70 limits assumed): T1 sequence (P10997 34-70 limits assumed)
As to the kind of experiment: Disaggregation of pre-formed amylin amyloid fibrils (thioflavin-T and TEM). It is filed as biochemical. Conditions: 20-fold excess added after amyloid formation was complete; up to 48 hours.
Protocol: Solutions were prepared by adding pH 7.4, 20 mM Tris buffer and thioflavin-T to lyophilized dry peptides for a final peptide concentration of 16 M. For the studies of Aspirin and Ketoprofen, 0.25% DMSO was present in the solution. Measurements were made at 25° C. using a Beckman Coulter DTX880 plate reader without stirring. An excitation filter of 430 nm and an emission filter of 485 nm were used.

Where [4] appears, read: 20 to 1 ratio of compound to human IAPP.
[5] abbreviates: compound 20 parts, human IAPP 1 part, example in present tense.
The mark [6] stands for this setting: IAPP:compound ratios 1:1 to 1:20, pH 7.4, 20 mM Tris, 25° C.

Entries after “also recorded” stand apart in the source; their conditions may differ.

For `C[C@@H](C(=O)O)c1ccc(-c2ccccc2)c(F)c1` [R-flurbiprofen], the “effect on human IAPP amyloid formation (thioflavin-T time course)” value (“effect on human IAPP amyloid formation” below) at human IAPP (setting [4]) is “accelerated islet amyloid formation”; at human IAPP (20 to 1 ratio of compound to human IAPP, listed as R flurbiprofen) it was “equally effective”. Moreover, the “presence and toxic effects of intermediates of amyloid formation” value (“presence and toxic effects” below) in the series on rat INS-1 beta-cells (human IAPP with compound) was “reduced the presence and toxic effects of intermediates of amyloid formation”. Also, the “acceleration of amyloid formation and reduction of toxic effects of intermediates, WT human IAPP versus mutant IAPP” value in series [1] was “about equally”.
With `O=C(O)Cc1ccc(-c2ccccc2)c(F)c1` [2-(2-Fluorobiphenyl-4-yl)acetic acid, 2-(2-fluorobiphenyl-4-yl)acetic acid], the “effect on islet amyloid formation (thioflavin-T time course)” value (“effect on islet amyloid formation” for short) on human IAPP was “accelerates islet amyloid formation”. Also, the “presence and toxic effects” value in the series on rat INS-1 beta-cells (setting [5]) was “reduces the presence and toxic effects of intermediates of amyloid formation”.
For `COc1ccc2cc([C@H](C)C(=O)O)ccc2c1` [Naproxen], the “inhibition of amyloid formation by human IAPP (amylin)” value at human IAPP was “no inhibition of amyloid”. The “amyloid fibrils by TEM in presence of NSAID” value on human IAPP (amylin) (20-fold excess of NSAID over human IAPP, end of kinetic experiment) was “no changes in amyloid formation”.
Consider `C[C@H](C(=O)O)c1ccc(-c2ccccc2)cc1` [(S)-2-(Biphenyl-4-yl)propanoic acid, (S)-2-(biphenyl-4-yl)propanoic acid], for which, at human IAPP, the “effect on islet amyloid formation” value was “accelerates islet amyloid formation”. Also, the “presence and toxic effects” value in the series with rat INS-1 beta-cells (setting [5]) is “reduces the presence and toxic effects of intermediates of amyloid formation”.
With `CC[C@H](C)[C@H](NC(=O)[C@H](C)NC(=O)CNC(=O)[C@H](Cc1ccccc1)NC(=O)[C@H](CC(N)=O)NC(=O)[C@H](CC(N)=O)NC(=O)[C@H](CCCCN)NC(=O)[C@H](CO)NC(=O)[C@H](Cc1c[nH]cn1)NC(=O)[C@@H](NC(=O)[C@H](CC(C)C)NC(=O)[C@H](Cc1ccccc1)NC(=O)[C@H](CC(N)=O)NC(=O)[C@H](C)NC(=O)[C@H](CC(C)C)NC(=O)[C@H](CCCNC(=N)N)NC(=O)[C@H](CCC(N)=O)NC(=O)[C@@H](NC(=O)[C@H](C)NC(=O)[C@@H]1CSSC[C@H](NC(=O)[C@@H](N)CCCCN)C(=O)N[C@@H](CC(N)=O)C(=O)N[C@@H]([C@@H](C)O)C(=O)N[C@@H](C)C(=O)N[C@@H]([C@@H](C)O)C(=O)N1)[C@@H](C)O)C(C)C)C(=O)N[C@@H](CC(C)C)C(=O)N[C@@H](CO)C(=O)N[C@@H](CO)C(=O)N[C@H](C(=O)N[C@@H](CC(N)=O)C(=O)N[C@H](C(=O)NCC(=O)N[C@@H](CO)C(=O)N[C@@H](CC(N)=O)C(=O)N[C@H](C(=O)N[C@@H](Cc1ccc(O)cc1)C(N)=O)[C@@H](C)O)C(C)C)[C@@H](C)O` [S20K-human IAPP], the “onset and duration of toxicity relative to wild type human IAPP” value in series [2] was “increased the duration of toxicity”.
In the case of S-Flurbiprofen, the “effect on human IAPP amyloid formation” value at human IAPP (20 to 1 ratio of compound to human IAPP, listed as S flurbiprofen) was “equally effective”; at human IAPP (20 to 1 ratio of compound to human IAPP, listed as S-flurbiprofen), “accelerated islet amyloid formation”; at human IAPP (setting [6]), “accelerates amyloid formation by human IAPP in a dose dependent manner”. The “presence and toxic effects” value with rat INS-1 beta-cells (human IAPP with compound) is “reduced the presence and toxic effects of intermediates of amyloid formation”. In series [1], the “acceleration of amyloid formation and reduction of toxic effects of intermediates, WT human IAPP versus mutant IAPP” value was “about equally”.
Consider `CC[C@H](C)[C@H](NC(=O)[C@H](C)NC(=O)CNC(=O)[C@H](Cc1ccccc1)NC(=O)[C@H](CC(N)=O)NC(=O)[C@H](CC(N)=O)NC(=O)CNC(=O)[C@H](CO)NC(=O)[C@H](Cc1c[nH]cn1)NC(=O)[C@@H](NC(=O)[C@H](CC(C)C)NC(=O)[C@H](Cc1ccccc1)NC(=O)[C@H](CC(N)=O)NC(=O)[C@H](C)NC(=O)[C@H](CC(C)C)NC(=O)[C@H](CCCNC(=N)N)NC(=O)[C@H](CCC(N)=O)NC(=O)[C@@H](NC(=O)[C@H](C)NC(=O)[C@@H]1CSSC[C@H](NC(=O)[C@@H](N)CCCCN)C(=O)N[C@@H](CC(N)=O)C(=O)N[C@@H]([C@@H](C)O)C(=O)N[C@@H](C)C(=O)N[C@@H]([C@@H](C)O)C(=O)N1)[C@@H](C)O)C(C)C)C(=O)N[C@@H](CC(C)C)C(=O)N[C@@H](CO)C(=O)N[C@@H](CO)C(=O)N[C@H](C(=O)N[C@@H](CC(N)=O)C(=O)N[C@H](C(=O)NCC(=O)N[C@@H](CO)C(=O)N[C@@H](CC(N)=O)C(=O)N[C@H](C(=O)N[C@@H](Cc1ccc(O)cc1)C(N)=O)[C@@H](C)O)C(C)C)[C@@H](C)O` [S20G-IAPP], for which, in series [2], the “onset and duration of toxicity relative to wild type human IAPP” value was “more rapid onset and shorter duration of toxicity”.
Turning to `CC(C(=O)O)c1cccc(C(=O)c2ccccc2)c1` (stereo not shown) [Ketoprofen], at human IAPP, the “inhibition of amyloid formation by human IAPP (amylin)” value is reported as “do not inhibit amylin amyloid formation”. In addition, on human IAPP (amylin) (equimolar to 20-fold excess of Ketoprofen, 42 hours, amylin 16 μM), the “inhibition of amylin amyloid formation judged by TEM” value is listed as “not an amylin amyloid inhibitor; also recorded: does not inhibit amyloid formation by amylin”. Besides, the “disaggregation of pre-formed amylin amyloid fibrils” value in series [3] is reported as “unable to disassemble pre-formed amylin amyloid”.
Regarding `CC(C(=O)O)c1ccc(-c2ccc(O)cc2)c(F)c1` (stereo not shown) [OH-flurbiprofen, 2-(2-fluoro-4′-hydroxybiphenyl-4-yl) propanoic acid], the “effect on human IAPP amyloid formation” value on human IAPP (setting [4]) was “highest rate of acceleration of amyloid formation”; on human IAPP (setting [6]) it was “accelerated islet amyloid formation; also recorded: accelerates amyloid formation by human islet amyloid polypeptide”. The “presence and toxic effects” value in the series on rat INS-1 beta-cells (human IAPP with compound) is “reduced the presence and toxic effects of intermediates of amyloid formation in a dose dependent fashion”.
With `O=C(O)Cc1ccc(-c2ccccc2)cc1` [2-(Biphenyl-4-yl)acetic acid, 2-(biphenyl-4-yl)acetic acid], the “effect on islet amyloid formation” value on human IAPP is reported as “accelerates islet amyloid formation”. Moreover, the “presence and toxic effects” value in the series on rat INS-1 beta-cells (setting [5]) is “reduces the presence and toxic effects of intermediates of amyloid formation”.

(Values after US20160038448A1, “THE INHIBITION OF THE TOXIC EFFECTS OF ISLET AMYLOID FORMATION BY FLURBIPROFEN AND FLURBIPROFEN DERIVATIVES” (The Research Foundation for the State University of New York, priority 2013, published 2016).)
